Laboratory results from the kinase profiling compilation of Christmann-Franck et al. (2016).

Columns and labels:
Experiment in all cases: KINOMEscan competition binding
Conditions in all cases: compound 10.0 µM
CASK (human) = CASK (human) (UniProt O14936)
CAMK2B (human) = CAMK2B (human) (UniProt Q13554)
PRPF4B (human) = PRPF4B (human) (UniProt Q13523)
CDKL2 (human) = CDKL2 (human) (UniProt Q92772)
MAP3K6 (human) = MAP3K6 (human) (UniProt O95382)
CPK1 (P.falciparum) = system: CPK1 (P.falciparum)
RPS6KA6 KD1 (human) = RPS6KA6 KD1 (human) (UniProt Q9UK32)
ADCK3 (human) = ADCK3 (human) (UniProt Q8NI60)
MAP2K4 (human) = MAP2K4 (human) (UniProt P45985)
EPHA4 (human) = EPHA4 (human) (UniProt P54764)
Chain of EPHA4 (human) (P54764 whole entry, looked up): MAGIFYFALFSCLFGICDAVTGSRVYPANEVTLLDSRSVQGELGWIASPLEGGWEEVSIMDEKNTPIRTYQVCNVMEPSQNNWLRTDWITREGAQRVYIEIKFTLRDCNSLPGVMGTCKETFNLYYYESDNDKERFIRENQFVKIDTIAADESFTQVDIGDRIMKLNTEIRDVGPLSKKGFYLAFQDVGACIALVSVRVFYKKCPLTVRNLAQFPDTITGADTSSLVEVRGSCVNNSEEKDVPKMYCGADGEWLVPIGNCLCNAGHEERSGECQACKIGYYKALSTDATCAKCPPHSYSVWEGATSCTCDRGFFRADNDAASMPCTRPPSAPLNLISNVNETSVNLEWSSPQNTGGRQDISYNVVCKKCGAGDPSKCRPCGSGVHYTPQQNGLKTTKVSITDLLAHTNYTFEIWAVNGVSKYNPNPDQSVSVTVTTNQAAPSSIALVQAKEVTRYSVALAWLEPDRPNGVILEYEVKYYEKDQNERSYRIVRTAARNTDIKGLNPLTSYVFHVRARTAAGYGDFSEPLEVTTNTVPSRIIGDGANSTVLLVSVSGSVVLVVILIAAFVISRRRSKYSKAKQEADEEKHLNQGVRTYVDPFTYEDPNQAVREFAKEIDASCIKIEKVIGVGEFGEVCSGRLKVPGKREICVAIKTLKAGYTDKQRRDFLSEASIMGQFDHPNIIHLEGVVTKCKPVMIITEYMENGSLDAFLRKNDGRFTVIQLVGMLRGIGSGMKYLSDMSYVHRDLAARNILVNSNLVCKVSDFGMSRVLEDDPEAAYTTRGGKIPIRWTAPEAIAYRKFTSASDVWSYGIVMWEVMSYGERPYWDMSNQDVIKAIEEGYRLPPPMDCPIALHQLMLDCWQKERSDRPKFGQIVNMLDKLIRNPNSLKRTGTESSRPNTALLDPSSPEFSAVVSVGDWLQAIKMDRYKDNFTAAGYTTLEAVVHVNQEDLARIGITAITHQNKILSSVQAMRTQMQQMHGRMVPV

EPHA3 (human) = EPHA3 (human) (UniProt P29320)
Chain of EPHA3 (human) (P29320 whole entry, looked up): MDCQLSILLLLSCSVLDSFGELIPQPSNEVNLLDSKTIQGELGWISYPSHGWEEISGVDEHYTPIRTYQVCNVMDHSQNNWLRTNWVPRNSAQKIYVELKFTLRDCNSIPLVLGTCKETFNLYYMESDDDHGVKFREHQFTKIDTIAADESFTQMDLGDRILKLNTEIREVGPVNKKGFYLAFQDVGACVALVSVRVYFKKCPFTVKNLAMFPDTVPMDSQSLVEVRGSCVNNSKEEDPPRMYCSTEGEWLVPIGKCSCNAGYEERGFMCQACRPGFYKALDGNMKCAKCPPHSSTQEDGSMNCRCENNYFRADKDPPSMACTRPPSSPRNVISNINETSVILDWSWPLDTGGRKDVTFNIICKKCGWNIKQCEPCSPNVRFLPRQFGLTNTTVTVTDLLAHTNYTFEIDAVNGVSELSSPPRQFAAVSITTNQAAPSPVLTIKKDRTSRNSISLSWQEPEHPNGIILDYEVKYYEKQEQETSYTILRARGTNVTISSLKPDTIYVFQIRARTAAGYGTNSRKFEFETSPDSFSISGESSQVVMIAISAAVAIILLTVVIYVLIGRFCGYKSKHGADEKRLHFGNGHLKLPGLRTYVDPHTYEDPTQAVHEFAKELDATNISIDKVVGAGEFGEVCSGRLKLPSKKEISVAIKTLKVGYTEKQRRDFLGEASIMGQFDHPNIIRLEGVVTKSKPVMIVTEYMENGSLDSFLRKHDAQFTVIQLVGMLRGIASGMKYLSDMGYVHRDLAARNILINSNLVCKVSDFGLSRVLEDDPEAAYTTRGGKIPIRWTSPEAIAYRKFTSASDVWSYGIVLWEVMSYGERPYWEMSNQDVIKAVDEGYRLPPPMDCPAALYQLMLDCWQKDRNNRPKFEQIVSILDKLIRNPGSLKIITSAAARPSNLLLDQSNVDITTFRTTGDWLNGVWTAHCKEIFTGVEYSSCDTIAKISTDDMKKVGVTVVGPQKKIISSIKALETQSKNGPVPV

PRKACA (human) = PRKACA (human) (UniProt P17612)
CSNK1G1 (human) = CSNK1G1 (human) (UniProt Q9HCP0)
Chain of CSNK1G1 (human) (Q9HCP0 whole entry, looked up): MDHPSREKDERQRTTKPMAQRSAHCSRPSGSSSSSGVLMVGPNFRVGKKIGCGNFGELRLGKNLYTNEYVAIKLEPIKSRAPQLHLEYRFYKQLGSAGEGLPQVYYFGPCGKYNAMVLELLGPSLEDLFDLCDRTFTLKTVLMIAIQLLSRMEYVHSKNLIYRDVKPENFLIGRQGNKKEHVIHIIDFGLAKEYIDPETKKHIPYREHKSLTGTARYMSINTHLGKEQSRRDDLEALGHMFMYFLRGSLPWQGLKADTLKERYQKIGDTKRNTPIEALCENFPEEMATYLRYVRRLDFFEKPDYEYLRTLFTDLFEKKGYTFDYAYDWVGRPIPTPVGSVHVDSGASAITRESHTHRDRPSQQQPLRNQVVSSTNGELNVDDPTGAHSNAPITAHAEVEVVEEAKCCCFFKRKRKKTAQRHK

CDK17 (human) = CDK17 (human) (UniProt Q00537)
STK3 (human) = STK3 (human) (UniProt Q13188)
SYK (human) = SYK (human) (UniProt P43405)
MAPK13 (human) = MAPK13 (human) (UniProt O15264)
STK36 (human) = STK36 (human) (UniProt Q9NRP7)
RET (human) = RET (human) (UniProt P07949)
MAP3K11 (human) = MAP3K11 (human) (UniProt Q16584)
EPHB4 (human) = EPHB4 (human) (UniProt P54760)
MAST1 (human) = MAST1 (human) (UniProt Q9Y2H9)
MTOR (human) = MTOR (human) (UniProt P42345)
MAP2K7 (human) = MAP2K7 (human) (UniProt O14733)
MKNK2 (human) = MKNK2 (human) (UniProt Q9HBH9)
FGFR4 (human) = FGFR4 (human) (UniProt P22455)
CSNK2A2 (human) = CSNK2A2 (human) (UniProt P19784)
Chain of CSNK2A2 (human) (P19784 whole entry, looked up): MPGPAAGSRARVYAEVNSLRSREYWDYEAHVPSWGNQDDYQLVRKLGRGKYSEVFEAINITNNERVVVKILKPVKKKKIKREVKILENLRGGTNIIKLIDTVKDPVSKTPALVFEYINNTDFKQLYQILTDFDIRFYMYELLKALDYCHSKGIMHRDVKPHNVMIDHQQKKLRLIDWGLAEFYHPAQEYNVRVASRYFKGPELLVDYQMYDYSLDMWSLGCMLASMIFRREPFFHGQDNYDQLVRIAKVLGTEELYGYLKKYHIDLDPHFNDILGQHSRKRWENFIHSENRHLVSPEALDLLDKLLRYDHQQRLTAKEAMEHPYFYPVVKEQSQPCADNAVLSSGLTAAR

NEK7 (human) = NEK7 (human) (UniProt Q8TDX7)
PKMYT1 (human) = PKMYT1 (human) (UniProt Q99640)
CAMKK2 (human) = CAMKK2 (human) (UniProt Q96RR4)
DAPK1 (human) = DAPK1 (human) (UniProt P53355)
MERTK (human) = MERTK (human) (UniProt Q12866)
Chain of MERTK (human) (Q12866 whole entry, looked up): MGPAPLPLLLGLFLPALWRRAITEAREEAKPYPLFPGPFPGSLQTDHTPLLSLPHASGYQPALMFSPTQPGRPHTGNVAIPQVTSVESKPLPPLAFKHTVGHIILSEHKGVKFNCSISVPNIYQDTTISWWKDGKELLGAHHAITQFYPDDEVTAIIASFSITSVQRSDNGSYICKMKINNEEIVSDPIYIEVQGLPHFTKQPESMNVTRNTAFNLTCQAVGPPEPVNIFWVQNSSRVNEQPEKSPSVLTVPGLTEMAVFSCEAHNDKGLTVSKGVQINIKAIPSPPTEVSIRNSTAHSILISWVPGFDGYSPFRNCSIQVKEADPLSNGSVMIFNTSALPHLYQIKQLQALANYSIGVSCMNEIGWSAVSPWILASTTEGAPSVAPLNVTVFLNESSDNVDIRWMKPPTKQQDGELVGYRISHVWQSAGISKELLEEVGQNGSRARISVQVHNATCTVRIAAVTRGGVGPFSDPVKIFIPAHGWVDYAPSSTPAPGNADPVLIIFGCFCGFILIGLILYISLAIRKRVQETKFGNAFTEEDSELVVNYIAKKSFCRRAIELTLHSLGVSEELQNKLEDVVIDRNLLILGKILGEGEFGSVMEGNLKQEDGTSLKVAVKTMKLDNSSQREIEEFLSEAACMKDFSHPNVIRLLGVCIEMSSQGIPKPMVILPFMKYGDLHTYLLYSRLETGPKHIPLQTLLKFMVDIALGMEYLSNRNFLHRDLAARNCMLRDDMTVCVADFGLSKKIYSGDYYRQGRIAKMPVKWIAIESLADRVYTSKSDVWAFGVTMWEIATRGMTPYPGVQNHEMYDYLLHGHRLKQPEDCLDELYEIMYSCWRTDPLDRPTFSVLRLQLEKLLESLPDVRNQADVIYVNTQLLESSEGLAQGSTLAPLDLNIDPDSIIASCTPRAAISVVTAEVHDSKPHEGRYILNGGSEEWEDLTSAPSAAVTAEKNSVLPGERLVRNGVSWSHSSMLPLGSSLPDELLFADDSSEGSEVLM

CLK4 (human) = CLK4 (human) (UniProt Q9HAZ1)
Chain of CLK4 (human) (Q9HAZ1 whole entry, looked up): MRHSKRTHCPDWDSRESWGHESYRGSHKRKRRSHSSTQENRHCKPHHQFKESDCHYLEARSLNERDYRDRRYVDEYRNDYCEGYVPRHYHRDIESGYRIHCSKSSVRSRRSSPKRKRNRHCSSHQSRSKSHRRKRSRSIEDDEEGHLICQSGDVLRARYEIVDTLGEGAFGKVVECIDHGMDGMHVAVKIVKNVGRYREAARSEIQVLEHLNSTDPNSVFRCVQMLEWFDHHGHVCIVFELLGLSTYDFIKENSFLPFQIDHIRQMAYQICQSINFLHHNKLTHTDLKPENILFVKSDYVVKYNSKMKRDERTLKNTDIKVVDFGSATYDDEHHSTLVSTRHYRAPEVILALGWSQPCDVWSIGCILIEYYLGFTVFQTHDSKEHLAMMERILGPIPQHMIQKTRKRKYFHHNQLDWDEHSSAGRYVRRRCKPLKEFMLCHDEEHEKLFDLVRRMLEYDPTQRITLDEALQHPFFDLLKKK

DDR2 (human) = DDR2 (human) (UniProt Q16832)
PIK3C2B (human) = PIK3C2B (human) (UniProt O00750)
AKT1 (human) = AKT1 (human) (UniProt P31749)
YSK4 (human) = YSK4 (human) (UniProt Q56UN5)
ANKK1 (human) = ANKK1 (human) (UniProt Q8NFD2)
Chain of ANKK1 (human) (Q8NFD2 whole entry, looked up): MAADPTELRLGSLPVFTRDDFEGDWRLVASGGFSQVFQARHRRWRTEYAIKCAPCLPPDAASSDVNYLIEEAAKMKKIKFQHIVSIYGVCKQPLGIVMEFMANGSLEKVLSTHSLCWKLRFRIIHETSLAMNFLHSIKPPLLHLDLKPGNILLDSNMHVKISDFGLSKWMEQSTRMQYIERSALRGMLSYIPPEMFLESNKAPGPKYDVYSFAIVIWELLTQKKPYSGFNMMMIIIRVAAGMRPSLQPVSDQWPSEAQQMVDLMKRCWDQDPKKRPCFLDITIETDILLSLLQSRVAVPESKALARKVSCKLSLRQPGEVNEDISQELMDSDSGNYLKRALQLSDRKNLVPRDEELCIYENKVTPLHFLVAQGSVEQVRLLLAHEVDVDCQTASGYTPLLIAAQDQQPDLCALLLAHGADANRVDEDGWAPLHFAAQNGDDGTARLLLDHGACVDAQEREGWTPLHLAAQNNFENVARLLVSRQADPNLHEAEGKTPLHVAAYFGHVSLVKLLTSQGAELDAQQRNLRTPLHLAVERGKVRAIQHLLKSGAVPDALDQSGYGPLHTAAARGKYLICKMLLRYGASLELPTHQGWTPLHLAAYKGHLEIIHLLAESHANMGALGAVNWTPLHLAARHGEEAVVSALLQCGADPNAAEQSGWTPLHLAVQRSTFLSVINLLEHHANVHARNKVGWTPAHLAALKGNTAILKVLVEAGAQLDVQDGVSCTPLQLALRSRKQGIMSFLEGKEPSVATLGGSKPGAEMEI

EPHB2 (human) = EPHB2 (human) (UniProt P29323)
PRKCH (human) = PRKCH (human) (UniProt P24723)

Cc1ccc(NC(=O)c2cccc(C(C)(C)C#N)c2)cc1Nc1ccc2ncn(C)c(=O)c2c1
kinase still bound, per cent of control (CASK (human)): 96%
kinase still bound, per cent of control (CAMK2B (human)): 100%
kinase still bound, per cent of control (PRPF4B (human)): 100%
kinase still bound, per cent of control (CDKL2 (human)): 85%
kinase still bound, per cent of control (MAP3K6 (human)): 100%
kinase still bound, per cent of control (CPK1 (P.falciparum)): 0.75%
kinase still bound, per cent of control (RPS6KA6 KD1 (human)): 87%
kinase still bound, per cent of control (ADCK3 (human)): 100%
kinase still bound, per cent of control (MAP2K4 (human)): 100%
kinase still bound, per cent of control (EPHA4 (human)): 0%
kinase still bound, per cent of control (EPHA3 (human)): 5.1%
kinase still bound, per cent of control (PRKACA (human)): 100%
kinase still bound, per cent of control (CSNK1G1 (human)): 88%
kinase still bound, per cent of control (CDK17 (human)): 100%
kinase still bound, per cent of control (STK3 (human)): 100%
kinase still bound, per cent of control (SYK (human)): 100%
kinase still bound, per cent of control (MAPK13 (human)): 9.6%
kinase still bound, per cent of control (STK36 (human)): 88%
kinase still bound, per cent of control (RET (human)): 0.15%
kinase still bound, per cent of control (MAP3K11 (human)): 91%
kinase still bound, per cent of control (EPHB4 (human)): 0.25%
kinase still bound, per cent of control (MAST1 (human)): 100%
kinase still bound, per cent of control (MTOR (human)): 100%
kinase still bound, per cent of control (MAP2K7 (human)): 93%
kinase still bound, per cent of control (MKNK2 (human)): 99%
kinase still bound, per cent of control (FGFR4 (human)): 100%
kinase still bound, per cent of control (CSNK2A2 (human)): 100%
kinase still bound, per cent of control (NEK7 (human)): 96%
kinase still bound, per cent of control (PKMYT1 (human)): 98%
kinase still bound, per cent of control (CAMKK2 (human)): 28%
kinase still bound, per cent of control (DAPK1 (human)): 100%
kinase still bound, per cent of control (MERTK (human)): 100%
kinase still bound, per cent of control (CLK4 (human)): 100%
kinase still bound, per cent of control (DDR2 (human)): 21%
kinase still bound, per cent of control (PIK3C2B (human)): 100%
kinase still bound, per cent of control (AKT1 (human)): 100%
kinase still bound, per cent of control (YSK4 (human)): 0.85%
kinase still bound, per cent of control (ANKK1 (human)): 100%
kinase still bound, per cent of control (EPHB2 (human)): 0%
kinase still bound, per cent of control (PRKCH (human)): 100%

Cc1cc([C@@H](C)Nc2ccccc2C(=O)O)c2nc(N3CCOCC3)cc(=O)n2c1
kinase still bound, per cent of control (CASK (human)): 92%
kinase still bound, per cent of control (CAMK2B (human)): 83%
kinase still bound, per cent of control (PRPF4B (human)): 71%
kinase still bound, per cent of control (CDKL2 (human)): 91%
kinase still bound, per cent of control (MAP3K6 (human)): 95%
kinase still bound, per cent of control (CPK1 (P.falciparum)): 62%
kinase still bound, per cent of control (RPS6KA6 KD1 (human)): 71%
kinase still bound, per cent of control (ADCK3 (human)): 86%
kinase still bound, per cent of control (MAP2K4 (human)): 100%
kinase still bound, per cent of control (EPHA4 (human)): 93%
kinase still bound, per cent of control (EPHA3 (human)): 79%
kinase still bound, per cent of control (PRKACA (human)): 100%
kinase still bound, per cent of control (CSNK1G1 (human)): 68%
kinase still bound, per cent of control (CDK17 (human)): 100%
kinase still bound, per cent of control (STK3 (human)): 66%
kinase still bound, per cent of control (SYK (human)): 100%
kinase still bound, per cent of control (MAPK13 (human)): 87%
kinase still bound, per cent of control (STK36 (human)): 100%
kinase still bound, per cent of control (RET (human)): 100%
kinase still bound, per cent of control (MAP3K11 (human)): 100%
kinase still bound, per cent of control (EPHB4 (human)): 96%
kinase still bound, per cent of control (MAST1 (human)): 100%
kinase still bound, per cent of control (MTOR (human)): 11%
kinase still bound, per cent of control (MAP2K7 (human)): 90%
kinase still bound, per cent of control (MKNK2 (human)): 92%
kinase still bound, per cent of control (FGFR4 (human)): 100%
kinase still bound, per cent of control (CSNK2A2 (human)): 100%
kinase still bound, per cent of control (NEK7 (human)): 100%
kinase still bound, per cent of control (PKMYT1 (human)): 100%
kinase still bound, per cent of control (CAMKK2 (human)): 100%
kinase still bound, per cent of control (DAPK1 (human)): 95%
kinase still bound, per cent of control (MERTK (human)): 100%
kinase still bound, per cent of control (CLK4 (human)): 68%
kinase still bound, per cent of control (DDR2 (human)): 83%
kinase still bound, per cent of control (PIK3C2B (human)): 0.35%
kinase still bound, per cent of control (AKT1 (human)): 100%
kinase still bound, per cent of control (YSK4 (human)): 100%
kinase still bound, per cent of control (ANKK1 (human)): 100%
kinase still bound, per cent of control (EPHB2 (human)): 100%
kinase still bound, per cent of control (PRKCH (human)): 82%
